PMC6927504, “Screening of House Dust from Chinese Homes for Chemicals with Liver X Receptors Binding Activities and Characterization of Atherosclerotic Activity Using an in Vitro Macrophage Cell Line and ApoE^−/− Mice” (Environmental Health Perspectives, 2019)

Test system: ApoE−/− mice
Experiment: Atherosclerotic lesion analysis (Oil Red O) in ApoE−/− mouse model
Assay type: in vivo
Conditions: 13 weeks, p<0.01; for Area of the atherosclerotic lesion (en face lipid staining), higher than control: high-fat diet
Description: All experiments related to animals were approved by the institutional animal care and use committee of Peking University and followed the guidelines for animal experiments of the university as well as for experimental animals in China. The biological effect size of the animal experiments was based on the previous paper ([Negro Silva et al. 2017]). C57BL/6 (12 weeks old) and ApoE^−/− mice (12 weeks old) were obtained from the Beijing Vital River Laboratory Animal Technology Company. Mice used in the experiments were acclimated to the housing unit 2 weeks before they were used for experiments, and they were randomly assigned to control or TPHP treatment groups. Five animals were housed to a cage, and mice were acclimatized to the controlled environment (temperature: 22±2°C; relative humidity: 40–60%; artificial lighting: 12 h:12 h light/dark). Mice received diet and drinking water ad libitum. Body weight (BW) was measured every week during the dosing period. Forty-five C57BL/6 mice and 27 ApoE^−/− mice were used in this study. Animal protocol 1: Male C57BL/6 mice (five mice per group) were fed a basic diet (Laboratory Animal Center of the Academy of Military Medical Sciences, China). On Day 0, mice were stimulated with paraffin oil by intraperitoneal injection. From Day 1 to Day 7, mice were exposed to corn oil (control) or TPHP (dissolved in corn oil) at 40 or 200mg/kg BW by daily oral gavage. The volume of the corn oil or TPHP in corn oil administered was 5mL/kg BW. On Day 8, after the mice were anesthetized by sodium pentobarbital via intramuscular injection, peritoneal macrophages were harvested from peritoneal lavage with 4mL pre-warmed DMEM-F12 (containing 10% FBS) using a 25-gauge needle; 5–10 min later, 3–3.5mL peritoneal fluid was collected, and the cells were isolated by centrifuge at 1,000 rpm for 5 min. […] Considering that this study assessed the effects of short-term exposure to TPHP, whereas humans are exposed to TPHP over a lifelong period, the present study used exposure doses that were higher than that of human exposure from house dust. […]

## O=P(Oc1ccccc1)(Oc1ccccc1)Oc1ccccc1 [TPHP, triphenyl phosphate]
10 and 40 mg/kg BW
  Atherosclerotic lesion area around the aortic root versus control: significantly higher lesion area
10 mg/kg BW oral gavage
  Area of the atherosclerotic lesion (en face lipid staining), higher than control: 41%
40 mg/kg BW oral gavage
  Area of the atherosclerotic lesion (en face lipid staining), higher than control: 83%
